Our source for the EC50 and AC values is ChEMBL document CHEMBL1135215, “Synthesis and cytotoxicity of 3,4-diaryl-2(5H)-furanones” (2002).

One assay has as its system A549. In words: Cytotoxic activity against human lung cancer A549 cell line was determined. The settings on record: read-out: ED50 (the source's name). Format: functional.
For the next assay, the system named is Cancer cell lines. In words: Average cytotoxic activity (AC) in three cancer cell lines A549, SK-MEL-2 and MCF-7 was calculated. Format: functional, Homo sapiens. Set-up: unit not given beside the values.
The next assay relates to SK-MEL-2. In words: Cytotoxic activity against human melanoma SK-MEL-2 was determined. Type of assay: functional. The note with it: read-out: ED50 (the source's name).
The test system of the next assay is MCF7. The experiment in a line: Cytotoxic activity against human breast cancer MCF-7 cell line was determined. Type of assay: functional. The settings on record: read-out: ED50 (the source's name).

The structures appear in SMILES notation.

Regarding `COc1cc(-n2c(-c3ccc4c(c3)OCO4)coc2=O)cc(OC)c1OC`, the EC50 with A549, with SK-MEL-2 and in the assay with MCF7 was 64.5 nM throughout. In addition, the AC in the assay with Cancer cell lines was 64.5.
Regarding `COc1ccc(C2=C(c3cc(OC)c(OC)c(OC)c3)C(=O)OC2)cc1O`, the EC50 with A549 is 16.3 nM; with SK-MEL-2, 10.2 nM; in the assay with MCF7, 11.4 nM. Further, in the assay on Cancer cell lines, the AC is given as 12.6.
For `COc1cc(C2=C(c3ccc(N)cc3)COC2=O)cc(OC)c1OC` the same measures were 54.7 nM, 49.3 nM, 33 nM and 45.7.
On the same counts, the results for `COc1cc(C2=C(c3ccc4c(c3)OCO4)COC2=O)cc(OC)c1OC` are 100 nM, 70.8 nM, 80.4 nM and 83.8.
For `COc1ccccc1C1=C(c2cc(OC)c(OC)c(OC)c2)C(=O)OC1` the same measures were > 5000 nM, > 5000 nM, > 5000 nM and >5000.
`COc1cc([C@@H]2c3cc4c(cc3C[C@H]3COC(=O)[C@@H]32)OCO4)cc(OC)c1OC` [DESOXYPODOPHYLLOTOXIN]: the EC50 stood at 15.5 nM with A549, 8.4 nM in the assay with SK-MEL-2 and 11.7 nM in the assay with MCF7. Besides, in the assay on Cancer cell lines, the AC was 11.9.
